Assay results published in patent US20210070748A1, “INHIBITORS OF BRUTONS TYROSINE KINASE” (Pharmacyclics LLC, priority 2015, published 2021).

Tests used:
Type in all cases: biochemical
[1] = biological target: T1, JAK3 (Homo sapiens, UniProt P52333); assay: Inhibition of a panel of kinases, in vitro HotSpot kinase assay: JAK3; conditions: Table 15, C compounds; 1 μM ATP; read-out: IC50 JAK3
T1 sequence (P52333 1-1124): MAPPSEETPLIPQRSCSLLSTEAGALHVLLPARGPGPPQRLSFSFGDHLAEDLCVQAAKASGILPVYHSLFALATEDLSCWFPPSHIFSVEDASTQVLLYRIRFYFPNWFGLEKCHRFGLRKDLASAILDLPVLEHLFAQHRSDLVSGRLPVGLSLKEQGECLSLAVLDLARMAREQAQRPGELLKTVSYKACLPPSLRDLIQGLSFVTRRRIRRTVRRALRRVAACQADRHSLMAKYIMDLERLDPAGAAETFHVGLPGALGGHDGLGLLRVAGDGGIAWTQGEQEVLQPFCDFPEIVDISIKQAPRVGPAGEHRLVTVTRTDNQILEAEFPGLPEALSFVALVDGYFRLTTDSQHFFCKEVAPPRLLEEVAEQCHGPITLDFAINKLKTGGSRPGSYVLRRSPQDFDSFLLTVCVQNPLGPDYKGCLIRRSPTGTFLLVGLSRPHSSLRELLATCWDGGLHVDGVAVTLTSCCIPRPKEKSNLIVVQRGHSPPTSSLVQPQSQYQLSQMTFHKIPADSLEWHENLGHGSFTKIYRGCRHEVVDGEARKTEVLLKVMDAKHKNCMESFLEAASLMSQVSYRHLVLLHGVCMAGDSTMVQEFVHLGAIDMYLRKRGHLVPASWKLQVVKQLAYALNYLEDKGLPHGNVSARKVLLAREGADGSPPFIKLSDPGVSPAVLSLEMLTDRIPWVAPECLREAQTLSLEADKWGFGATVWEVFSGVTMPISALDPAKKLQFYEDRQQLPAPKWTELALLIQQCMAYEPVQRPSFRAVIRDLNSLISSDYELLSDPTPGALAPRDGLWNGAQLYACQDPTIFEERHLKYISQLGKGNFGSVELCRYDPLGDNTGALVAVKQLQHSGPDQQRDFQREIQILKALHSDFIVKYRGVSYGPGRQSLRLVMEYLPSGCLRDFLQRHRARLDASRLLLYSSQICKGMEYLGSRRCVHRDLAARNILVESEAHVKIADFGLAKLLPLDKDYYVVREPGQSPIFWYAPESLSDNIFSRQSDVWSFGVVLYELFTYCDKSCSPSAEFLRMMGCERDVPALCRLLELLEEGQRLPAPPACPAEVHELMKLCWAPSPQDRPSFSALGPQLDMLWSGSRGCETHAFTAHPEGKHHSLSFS

[2] = biological target: T2, TXK (Homo sapiens, UniProt P42681); assay: Inhibition of a panel of kinases, in vitro HotSpot kinase assay: TXK; conditions: Table 15, C compounds; 1 μM ATP
T2 sequence (P42681 1-527): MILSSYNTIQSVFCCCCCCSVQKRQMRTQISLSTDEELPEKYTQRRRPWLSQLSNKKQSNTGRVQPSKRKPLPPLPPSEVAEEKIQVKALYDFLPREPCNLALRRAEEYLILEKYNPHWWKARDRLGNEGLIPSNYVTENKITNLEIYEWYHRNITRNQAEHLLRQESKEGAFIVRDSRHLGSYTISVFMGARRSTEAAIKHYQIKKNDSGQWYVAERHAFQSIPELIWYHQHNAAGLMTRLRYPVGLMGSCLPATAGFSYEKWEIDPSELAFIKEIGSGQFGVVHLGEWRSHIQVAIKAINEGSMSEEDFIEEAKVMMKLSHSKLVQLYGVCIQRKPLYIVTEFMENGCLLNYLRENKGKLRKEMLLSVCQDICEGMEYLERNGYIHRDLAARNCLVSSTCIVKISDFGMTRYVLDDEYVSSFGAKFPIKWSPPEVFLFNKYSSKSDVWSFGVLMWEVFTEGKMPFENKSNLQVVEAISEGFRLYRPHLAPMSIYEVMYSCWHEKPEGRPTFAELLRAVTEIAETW
Method: (§1) The degree of inhibition of a panel of kinases is determined using the in vitro HotSpot kinase assay (purified enzymes, ^33P-ATP, an appropriate substrate and 1 μM ATP).

[3] = biological target: T3, ITK (Homo sapiens, UniProt Q08881); assay: Inhibition of a panel of kinases, in vitro HotSpot kinase assay: ITK; conditions: Table 15, C compounds; 1 μM ATP
T3 sequence (Q08881 1-620): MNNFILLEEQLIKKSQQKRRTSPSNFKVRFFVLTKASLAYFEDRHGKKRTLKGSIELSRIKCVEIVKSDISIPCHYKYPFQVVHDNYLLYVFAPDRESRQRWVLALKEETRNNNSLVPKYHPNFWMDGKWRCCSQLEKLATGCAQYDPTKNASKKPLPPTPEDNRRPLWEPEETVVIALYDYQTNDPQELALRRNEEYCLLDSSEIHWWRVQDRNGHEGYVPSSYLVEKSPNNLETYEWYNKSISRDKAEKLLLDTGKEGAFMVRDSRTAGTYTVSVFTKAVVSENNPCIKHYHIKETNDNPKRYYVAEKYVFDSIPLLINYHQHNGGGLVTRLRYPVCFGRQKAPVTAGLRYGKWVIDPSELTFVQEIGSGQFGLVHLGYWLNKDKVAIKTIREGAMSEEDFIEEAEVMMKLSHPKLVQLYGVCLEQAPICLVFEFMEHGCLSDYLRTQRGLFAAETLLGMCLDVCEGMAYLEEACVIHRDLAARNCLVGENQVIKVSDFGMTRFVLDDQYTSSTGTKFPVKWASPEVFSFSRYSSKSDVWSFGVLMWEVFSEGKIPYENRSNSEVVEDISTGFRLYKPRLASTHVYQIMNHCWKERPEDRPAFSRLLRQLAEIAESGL
Method: as §1

Row | SMILES | IC50 [1] [nM] | IC50 [2] [nM] | IC50 [3] [nM]
1 | C=CC(=O)N1CCC[C@@H](N(C)c2cnc(C(N)=O)c(Nc3ccc(C4(C)CCN(C5CCCC5)CC4)cc3)n2)C1 [Example C-44, (R)-5-((1-acryloylpiperidin-3-yl)(methyl)amino)-3-(4-(1-cyclopentyl-4-methylpiperidin-4-yl)phenylamino) pyrazine-2-carboxamide] | < 10 | ≤ 10 | ≤ 10
2 | C=CC(=O)N1CCC[C@@H](Nc2nnc(C(N)=O)c(Nc3cc(C)ns3)n2)C1 [Example C-56, (R)-3-(1-acryloylpiperidin-3-ylamino)-5-(3-methylisothiazol-5-ylamino)-1,2,4-triazine-6-carboxamide] | < 10 | ≤ 10 | ≤ 10
3 | C=CC(=O)N1CCC[C@@H](Nc2nnc(C(N)=O)c(Nc3ccc(C4CCN(C(=O)CC)CC4)cc3)n2)C1 [Example C-57, (R)-3-(1-acryloylpiperidin-3-ylamino)-5-(4-(1-propionylpiperidin-4-yl)phenylamino)-1,2,4-triazine-6-carboxamide] | < 10 | ≤ 10 | ≤ 10
4 | C=CC(=O)N1CCC[C@@H](Nc2cnc(C(N)=O)c(Nc3ccc(C4CCN(C5CCCC5)CC4)cc3)n2)C1 [Example C-84, (R)-5-(1-acryloylpiperidin-3-ylamino)-3-(4-(1-cyclopentylpiperidin-4-yl)phenylamino)pyrazine-2-carboxamide] | < 10 | ≤ 10 | ≤ 10
5 | C=CC(=O)N1CC[C@@H](N(C)c2cnc(C(N)=O)c(Nc3ccc(C4CCN(C5CCCC5)CC4)cc3)n2)C1 [Example C-85, (R)-5-((1-acryloylpyrrolidin-3-yl)(methyl)amino)-3-(4-(1-cyclopentylpiperidin-4-yl)phenylamino) pyrazine-2-carboxamide] | < 10 | ≤ 10 | ≤ 10
